# From patent US7109229B2, “Methods and compounds for treating proliferative diseases” (Eli Lilly and Company, priority 2000, dated 2006)
# Structures can show the parent of a compound that is named as a salt. Marks after values point to notes of the source that are not given here.
# Key:
# Cyclin D1-cdk4 [1] = target: T1, Cyclin D1-cdk4 (Homo sapiens, UniProt P11802); experiment: Cyclin D1-cdk4 kinase activity with the Rb21 protein as substrate; format: biochemical
# Procedure: The compounds of Formula I were tested using in vitro. An important in vitro test is the ability of the compound to inhibit the activity of the CDK4 enzyme. This test is done using Rb^ING and/or Rb^21 substrates as described in the literature ([…]., et al, J. Biol. Chem. 273, 26506-26515 (1998)). […] The reaction was incubated at room temperature (about 74° F.) for 60 minutes, and then terminated by the addition of 100 ul of 25% trichloroacetic acid. Next, the reaction was filtered through a Millipore Multiscreen-FC Plate-Catalog number MAFC NOB 10, and the plate was washed 2 times with 320 ul each of 10% trichloroacetic acid, followed by the addition of 100 ul of scintillation fluid and quantitation on a Packard Instruments, Top Count, scintillation counter.
# Cyclin D1-cdk4 [2] = target: T1, Cyclin D1-cdk4; experiment: Cyclin D1-cdk4 kinase activity with the ING peptide as substrate; format: biochemical
# Procedure: The compounds of Formula I were tested using in vitro. An important in vitro test is the ability of the compound to inhibit the activity of the CDK4 enzyme. This test is done using Rb^ING and/or Rb^21 substrates as described in the literature (KONSTANTINIDIS, A. K., et al, J. Biol. Chem. 273, 26506–26515 (1998)). The test yields the micromolar concentration of the test compound, which produces a 50% inhibition of the CDK4 enzyme activity.
# Assay of Cyclin D1-cdk4 Kinase Activity with the ING Peptide as Substrate.
# The cyclin D1-cdk4 kinase activity of a compound was assayed by preparing a 100 ul reaction at the following concentrations: 35 mM Hepes pH 7.0, 10 mM MgCl2, 300 uM ATP, 200 uM ING peptide, 1.0 uCi of γ-^33P-ATP, 4.34 ug of cyclin D-cdk4 enzyme, 4% DMSO, and various concentrations of inhibitor. The reaction was incubated at room temperature (about 74° F.) for 60 minutes, and then terminated by the addition of 100 ul of 10% phosphoric acid. Next, the reaction was filtered through a Millipore Multiscreen-PH Plate—Catalog number MAPH NOB 10, and the plate was washed 2 times with 320 ul each of 0.5% phosphoric acid, followed by the addition of 100 ul of scintillation fluid and quantitation on a Packard Instruments, Top Count, scintillation counter.
# HCT116 cells [3] = experiment: Cell growth inhibition assay (MTT), HCT116; format: cell-based; details: Homo sapiens, HCT-116, 72 h drug exposure
# Source text: (§1) A major in vitro test is the cell growth inhibition test. In this test, the concentration of the test compound that causes a 50% inhibition of cell growth for a selected cell line. A low value is desirable in this test. This test is done according to a standard protocol (SCHULTZ, R. M., et al, Oncology Res. 5, 223–228 (1993)). Another major in vitro test is the G1 arrest test. This test measures the proportion of the cells that are arrested in the G1 phase relative to control. A result above 1.5 is desirable in this test. […] The results are expressed as a percentage inhibition of ser-780 pRb phosphorylation in drug treated cells versus control cells treated with DMSO alone. […]
# H460 cells = experiment: Cell growth inhibition assay (MTT), H460; format: cell-based; details: Homo sapiens, NCI-H460, 72 h drug exposure
# Source text: as §1
# HCT116 cells [4] = experiment: G1 arrest test, cell cycle analysis using flow cytometry; format: cell-based, human; details: HCT116 cells after 24 h incubation period; at IC50 conc.
# Source text: as §1
# [5] = tested on: Ser-780 pRb phosphorylation in HCT116 cells; experiment: Inhibition of Rb phosphorylation assay; format: cell-based, human; details: HCT116 cells after 24 h incubation period
# Source text: as §1
# Human HCT116 colon carcinoma cell line was purchased from American Tissue Culture Collection (Rockville, Md.) and maintained as monolayer in RPMI-1640 with L-Glutamine and 25 mM HEPES supplemented with 10% fetal bovine serum in a 37° C. incubator with a 10% CO2 atmosphere. […] Protein concentration was determined by the Bio-Rad DC protein assay (Bio-Rad, Hercules, Calif.). […]
# protein kinase C = details: background, literature; cited from earlier work
# protein kinase A = details: background, literature; cited from earlier work
# [6] = Table 1, Rb21 protein substrate, read-out: Rb21 IC50
# [7] = Table 1, ING peptide substrate, read-out: RbING IC50
# T1 sequence (P11802 whole entry): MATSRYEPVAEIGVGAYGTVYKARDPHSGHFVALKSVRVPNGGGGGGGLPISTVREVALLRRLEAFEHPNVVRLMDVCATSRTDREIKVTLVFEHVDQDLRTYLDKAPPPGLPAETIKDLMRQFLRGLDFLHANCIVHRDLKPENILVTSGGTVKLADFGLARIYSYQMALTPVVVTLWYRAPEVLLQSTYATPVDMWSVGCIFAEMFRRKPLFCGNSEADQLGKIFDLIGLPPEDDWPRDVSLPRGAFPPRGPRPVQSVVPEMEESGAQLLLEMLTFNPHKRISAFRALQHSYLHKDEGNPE
# T1 sequence (P24385 whole entry partner): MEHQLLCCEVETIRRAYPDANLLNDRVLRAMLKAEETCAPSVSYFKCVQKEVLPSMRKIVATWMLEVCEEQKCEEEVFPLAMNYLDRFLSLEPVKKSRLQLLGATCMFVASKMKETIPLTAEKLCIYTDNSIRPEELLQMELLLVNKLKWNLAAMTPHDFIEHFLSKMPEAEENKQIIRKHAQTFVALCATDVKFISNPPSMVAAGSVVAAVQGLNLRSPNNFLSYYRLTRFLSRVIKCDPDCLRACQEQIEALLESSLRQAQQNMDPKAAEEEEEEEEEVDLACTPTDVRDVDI
Structure (SMILES),IC50 (Cyclin D1-cdk4 [1]; [6]) [µM],IC50 (Cyclin D1-cdk4 [2]; [7]) [µM],further results
"Cn1ccc2ccc3c4[nH]c5ccccc5c4c4c(c3c21)C(=O)NC4=O [Example 2, 5-Methyl-7H,13H-indolo[6,7-a]-pyrrolo[3,4-c]-carbazole-6,8-dione]",0.0215,–,–
"COC(=O)[C@H](C)NCCCn1c2cc(OC)ccc2c2c3c(c4c(ccc5ccn(C)c54)c21)C(=O)NC3=O [Example 59, (S)-(+)-11-Methoxy-5-methyl-13-(2-propylamino-propionic acid methyl ester)-7H-indolo[6,7-a]pyrrolo[3,4-c]carbazole-6,8-dione]",0.0451,0.12,–
CN1CC[C@H](c2c(O)cc(O)c3c(=O)cc(-c4ccccc4Cl)oc23)[C@H](O)C1 [Flavopiridol],–,–,concentration at which protein kinase C is inhibited (protein kinase C): ≥ 10 μM/L; concentration at which protein kinase A is inhibited (protein kinase A): ≥ 10 μM/L
"CN1CCN(CCCc2cccc3c2[nH]c2c4ccc5ccn(C)c5c4c4c(c32)C(=O)NC4=O)CC1 [Example 79, 12-(1-Methyl-4-propyl-piperazine)-5-methyl-7H,13H-indolo[6,7-a]pyrrolo[3,4-c]carbazole-6,8-dione]",0.0347,0.0763,–
"Cc1ccc2c(c1)[nH]c1c3ccc4ccn(C)c4c3c3c(c21)C(=O)NC3=O [Example 92, 11-Methyl-5-methyl-7H,13H-indolo[6,7-a]pyrrolo[3,4-c]6,8-dione]",–,–,melting point: 170 °C (dec.)
"Cn1ccc2ccc3c4[nH]c5ccc(C(F)(F)F)cc5c4c4c(c3c21)C(=O)NC4=O [Example 94, 10-Trifluoromethyl-5-methyl-7H,13H-indolo[6,7-a]pyrrolo[3,4-c]6,8-dione]",–,–,melting point: 100 to 110 °C (dec.)
"COc1ccc2c3c4c(c5c(ccc6ccn(C)c65)c3n(CCN3CCC(C(N)=O)CC3)c2c1)C(=O)NC4=O [Example 36, 11-Methoxy-5-methyl-13-(1-ethyl-piperidine-4-carboxylic acid amide)-7H-indolo[6,7-a]pyrrolo[3,4-c]carbazole-6,8-dione]",0.0357,0.0824,–

# More lines, main results first:
IC50 (Cyclin D1-cdk4 [1]; [6]) [µM],IC50 (Cyclin D1-cdk4 [2]; [7]) [µM],Structure (SMILES),further results
0.00165,0.0431,"COc1ccc2c(c1)[nH]c1c3ccc4ccn(C)c4c3c3c(c21)C(=O)NC3=O [Example 1, 11-Methoxy-5-methyl-5H,13H-indolo[6,7-a]pyrrolo[3,4-c]carbazole-6,8-dione]","IC50 (Cyclin D1-cdk4 [2]; Table 2, Rb^ING substrate, read-out: CDK4 Inhibition (IC50/μM) Rb^ING): 0.04 µM; IC50 (Cyclin D1-cdk4 [1]; Table 2, Rb^21 substrate, read-out: CDK4 Inhibition (IC50/μM) Rb^21): 0.001 µM; IC50 (HCT116 cells [3]): 1.8 µM; IC50 (H460 cells): 1.09 µM; G1 Arrest; x vs control (HCT116 cells [4]): 2.6^c x vs control; % Inhibtion of Rb Phosphorylation in vitro @3XIC50 ([5]; compound at 3XIC50): 97%; % Inhibtion of Rb Phosphorylation in vitro @IC50 ([5]; compound at IC50): 90%"
0.0177,0.0992,"COc1ccc2c3c4c(c5c(ccc6ccn(C)c65)c3n(CCCNCCN(C)C)c2c1)C(=O)NC4=O [Example 56, 11-Methoxy-5-methyl-13-(N,N-dimethyl-N′-propyl-ethane-1,2-diamine)-7H-indolo[6,7-a]pyrrolo[3,4-c]carbazole-6,8-dione dihydrochloride]",–
0.0246,0.042,"COc1ccc2c3c4c(c5c(ccc6ccn(C)c65)c3n(CCCNCCN(C)C)c2c1)C(=O)NC4=O [Example 55, 11-Methoxy-5-methyl-13-(N,N-dimethyl-N′-propyl-ethane-1,2-diamine)-7H-indolo[6,7-a]pyrrolo[3,4-c]carbazole-6,8-dione]",–
0.0116,–,"COc1ccc2c3c4c(c5c(ccc6ccn(C)c65)c3n(CCCO)c2c1)C(=O)NC4=O [Example 11, 13-(3-Hydroxy-propyl)-11-methoxy-5-methyl-5H,13H-indolo[6,7-a]pyrrolo[3,4-c]carbazole-6,8-dione]",–
0.0109,0.0782,"Cn1ccc2ccc3c4[nH]c5c(CCN6CCCCC6)cccc5c4c4c(c3c21)C(=O)NC4=O [Example 83, 5-Methyl-12-(2-ethylpiperidine)-7H,13H-indolo[6,7-a]pyrrolo[3,4-c]carbazole-6,8-dione]",–
0.0109,0.0226,"CN1CCN(CCc2cccc3c2[nH]c2c4ccc5ccn(C)c5c4c4c(c32)C(=O)NC4=O)CC1 [Example 68, 5-Methyl-12-(1-ethyl-4-methyl-piperazine)-7H,13H-indolo[6,7-a]pyrrolo[3,4-c]carbazole-6,8-dione]",–
